Results published in ChEMBL document CHEMBL2073748, “Na(+)-dependent carnitine transport by organic cation transporter (OCTN2): its pharmacological and toxicological relevance” (J Pharmacol Exp Ther, 1999).
Values belong to the molecule of their own block, whether it stands above or below them.

Key:
Assay type in all cases: functional, cell-based
[1] = target: T1, Organic cation/carnitine transporter 2 (Homo sapiens, UniProt O76082); experiment: TP_TRANSPORTER: inhibition of Carnitine uptake (Carnitine: 0.010? uM, alphaKG: 500 uM) in OCTN2-expressing HEK293 cells; details: hek293, 500 µM
T1 sequence (O76082 whole entry): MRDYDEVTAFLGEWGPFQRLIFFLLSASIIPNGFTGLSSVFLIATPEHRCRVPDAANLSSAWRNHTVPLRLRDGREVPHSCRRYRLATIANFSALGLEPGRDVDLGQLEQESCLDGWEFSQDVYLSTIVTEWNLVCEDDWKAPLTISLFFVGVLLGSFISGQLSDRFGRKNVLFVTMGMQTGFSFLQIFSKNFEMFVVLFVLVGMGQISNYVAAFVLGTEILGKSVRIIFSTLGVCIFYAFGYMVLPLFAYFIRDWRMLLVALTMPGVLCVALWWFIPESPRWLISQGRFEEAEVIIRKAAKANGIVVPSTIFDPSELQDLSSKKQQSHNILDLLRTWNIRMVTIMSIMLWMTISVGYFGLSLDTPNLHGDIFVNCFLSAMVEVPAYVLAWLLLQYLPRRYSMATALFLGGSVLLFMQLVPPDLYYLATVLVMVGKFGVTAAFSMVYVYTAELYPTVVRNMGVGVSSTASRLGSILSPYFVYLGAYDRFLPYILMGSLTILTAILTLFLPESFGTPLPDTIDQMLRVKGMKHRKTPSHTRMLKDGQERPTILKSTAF

[2] = target: T1, Organic cation/carnitine transporter 2; experiment: TP_TRANSPORTER: inhibition of Carnitine uptake (Carnitine: 0.010? uM, PAH: 500 uM) in OCTN2-expressing HEK293 cells; details: hek293, 500 µM
[3] = target: T1, Organic cation/carnitine transporter 2; experiment: TP_TRANSPORTER: uptake in OCTN2-expressing HEK293 cells
[4] = target: T1, Organic cation/carnitine transporter 2; experiment: TP_TRANSPORTER: inhibition of Carnitine uptake (Carnitine: 0.010? uM, NMN: 500 uM) in OCTN2-expressing HEK293 cells; details: hek293, 500 µM
[5] = target: T1, Organic cation/carnitine transporter 2; experiment: TP_TRANSPORTER: inhibition of Carnitine uptake (Carnitine: 0.010? uM, Norfloxacin: 500 uM) in OCTN2-expressing HEK293 cells; details: hek293, 500 µM
[6] = target: T1, Organic cation/carnitine transporter 2; experiment: TP_TRANSPORTER: inhibition of Carnitine uptake (Carnitine: 0.010? uM, Pivalate: 500 uM) in OCTN2-expressing HEK293 cells; details: hek293, 500 µM
[7] = target: T1, Organic cation/carnitine transporter 2; experiment: TP_TRANSPORTER: inhibition of Carnitine uptake (Carnitine: 0.010? uM, SPLX: 500 uM) in OCTN2-expressing HEK293 cells; details: hek293, 500 µM

Activity [1]: is not an inhibitor [-]
SMILES: O=C(O)CCC(=O)C(=O)O [ALPHA-KETOGLUTARIC ACID]

Activity [2]: is not an inhibitor [-]
Activity [3]: is not a substrate [-]
SMILES: Nc1ccc(C(=O)NCC(=O)O)cc1 [AMINOHIPPURIC ACID]

Further lines, the molecule ahead of its results:

SMILES: CNC(=O)c1cccnc1 [NICOTINYL METHYLAMIDE]
Activity [4]: is not an inhibitor [-]

SMILES: CCn1cc(C(=O)O)c(=O)c2cc(F)c(N3CCNCC3)cc21 [NORFLOXACIN]
Activity [5]: is not an inhibitor [-]

SMILES: CC(C)(C)C(=O)O [PIVALATE]
Activity [6]: is not an inhibitor [-]

SMILES: C[C@@H]1CN(c2c(F)c(N)c3c(=O)c(C(=O)O)cn(C4CC4)c3c2F)C[C@H](C)N1 [SPARFLOXACIN]
Activity [7]: is not an inhibitor [-]
